Experimental data from patent US7560476B2, “Microbicidal composition” (Rohm and Haas Company, priority 2003, dated 2009).
Like-named read-outs stand apart in the source and are kept apart here.

How the values were obtained:
C. albicans 10231 = test: Synergy test, microtiter plate high resolution MIC assay, PDB medium; assay type: cell-based, Candida albicans
Procedure: (§1) Synergism was determined by an industrially accepted method described by Kull, F. C.; Eisman, P. C.; Sylwestrowicz, H. D. and Mayer, R. L., in Applied Microbiology 9:538-541 (1961), using the ratio determined by the formula: Qa/QA+Qb/QB=Synergy Index (“SI”) wherein: • QA=concentration of compound A (first component) in ppm, acting alone, which produced an end point (MIC of Compound A). • Qa=concentration of compound A in ppm, in the mixture, which produced an end point. • QB=concentration of compound B (second component) in ppm, acting alone, which produced an end point (MIC of Compound B). • Qb=concentration of compound B in ppm, in the mixture, which produced an end point.
(§2) When the sum of Qa/QA and Qb/QB is greater than one, antagonism is indicated. […] The lower the SI, the greater the synergy shown by that particular mixture. The minimum inhibitory concentration (MIC) of a microbicide is the lowest concentration tested under a specific set of conditions that prevents the growth of added microorganisms.
(§3) Synergy tests were conducted using standard microtiter plate assays with media designed for optimal growth of the test microorganism. Minimal salt medium supplemented with 0.2% glucose and 0.1% yeast extract (M9GY medium) was used for testing bacteria; Potato Dextrose Broth (PDB medium) was used for testing yeast and mold. In this method, a wide range of combinations of microbicides was tested by conducting high resolution MIC assays in the presence of various concentrations of MI. High resolution MICs were determined by adding varying amounts of microbicide to one column of a microtitre plate and doing subsequent […] dilutions using an automated liquid handling system to obtain a series of endpoints ranging from 2 ppm to 10,000 ppm active ingredient. The synergy of the combinations of the present invention was determined against two bacteria, Staphylococcus aureus (S. aureus—ATCC #6538) or Pseudomonas aeruginosa (P. aeruginosa—ATCC #15442), a yeast, Candida albicans (C. albicans—ATCC 10231), and a mold, Aspergillus niger (A. niger—ATCC 16404). […]

A. niger 16404 = test: as above; assay type: cell-based, Aspergillus niger
Procedure: as §1, §2, §3

S. aureus 6538 = test: Synergy test, microtiter plate high resolution MIC assay, M9GY medium; assay type: cell-based, Staphylococcus aureus
Procedure: as §1, §2, §3

P. aeruginosa 9027 = test: as above; assay type: cell-based, Pseudomonas aeruginosa
[1] = tested on: microorganisms isolated from contaminated paint; test: Testing of synergistic combinations in paint (repeated inoculation); assay type: cell-based; details: paint pH 8.5-8.8
Procedure: A paint formulation having a pH of 8.5-8.8 was prepared from an acrylic binder, cellulosic thickener, kaolin, additives for formulation, and water. Fifty grams of the paint samples are inoculated repeatedly with microorganisms isolated from contaminated paint, with rising concentrations of inoculum. This treatment is carried out once a week. Six days after each inoculation, the surviving microorganisms are evaluated in each sample by applying onto nutrient media. These streak-outs are assessed after an incubation time of up to seven days (at 27±2° C. and 85-95% relative atmospheric humidity). An unpreserve sample of the system to be examined is used to check the susceptibility to the growth of microorganisms. Five inoculation cycles are carried out, thus leading to a test duration of six weeks. The rating scale for evaluation microbial growth is as follows: […]

Structure (SMILES): CNC(=O)c1ccccc1SSc1ccccc1C(=O)NC [DTBMA, 2,2′-dithiobis(N-methylbenzamide)]
- MIC (C. albicans 10231; Candida albicans, 10231, PDB, 48 hours, read-out: QDTBMA (MIC of DTBMA acting alone)): 40 µg/mL
- MIC (A. niger 16404; Aspergillus niger, 16404, PDB, 72 hours, read-out: QDTBMA (MIC of DTBMA acting alone)): 1500 µg/mL
- MIC (S. aureus 6538; Staphylococcus aureus, 6538, M9GY, 24 hours, read-out: QDTBMA (MIC of DTBMA acting alone)): 40 µg/mL
- MIC (P. aeruginosa 9027; Pseudomonas aeruginosa, 9027, M9GY, 72 hours, read-out: QDTBMA (MIC of DTBMA acting alone)): 1000 µg/mL
- growth rating >5 inoc. ([1]; 0.0 ppm MI, 152.0 ppm DTBMA (0:100)): 3
- growth rating >5 inoc. ([1]; 0.0 ppm MI, 228.0 ppm DTBMA (0:100)): 3

Structure (SMILES): Cn1sc2ccccc2c1=O [MBI, 2-methylbenzisothiazolone]
- MIC (C. albicans 10231; Candida albicans, 10231, PDB, 48 hours, read-out: QMBI (MIC of MBI acting alone)): 8 µg/mL
- MIC (A. niger 16404; Aspergillus niger, 16404, PDB, 72 hours, read-out: QMBI (MIC of MBI acting alone)): 60 µg/mL
- MIC (S. aureus 6538; Staphylococcus aureus, 6538, M9GY, 24 hours, read-out: QMBI (MIC of MBI acting alone)): 8 µg/mL
- MIC (P. aeruginosa 9027; Pseudomonas aeruginosa, 9027, M9GY, 72 hours, read-out: QMBI (MIC of MBI acting alone)): 200 µg/mL

Structure (SMILES): Cn1sccc1=O [MI, 2-methyl-4-isothiazolin-3-one]
- MIC (C. albicans 10231; Candida albicans, 10231, 48 h, read-out: QMI (MIC of MI acting alone)): 175 µg/mL
- MIC (A. niger 16404; Aspergillus niger, 16404, 72 h, read-out: QMI (MIC of MI acting alone)): 400 µg/mL
- MIC (S. aureus 6538; Staphylococcus aureus, 6538, 24 h, read-out: QMI (MIC of MI acting alone)): 60 µg/mL
- MIC (P. aeruginosa 9027; Pseudomonas aeruginosa, 9027, 72 h, read-out: QMI (MIC of MI acting alone)): 25 µg/mL
- growth rating >5 inoc. ([1]; 150.0 ppm MI, 0.0 ppm DTBMA (100:0)): 2/1
